Values of other authors in patent publication US6916809B2, “Heterocyclic acridone inhibitors of IMPDH enzyme” (Bristol-Myers Squibb Company, priority 2001, dated 2005).
Like-named read-outs stand apart in the source and are kept apart here.

Assays:
[1] = system: antigen-specific T lymphocyte responses; conditions: for synergistic effect with Rol on inhibition of antigen-induced proliferation: combined with Rol 10^-7 M; for approximate IC10: antigen-induced proliferation, Canelos et al. 2001; for % inhibition of proliferation: synergistic combination of rolipram and MPA
[2] = system: IMPDH types I and II; conditions: low and high concentrations
[3] = system: IL-2, IL-4, and IFN; conditions: Rol 10^-7 M, MPA 10^-8 M

Row | Compound | synergistic effect with Rol on inhibition of antigen-induced proliferation [1] | approximate IC10 [1] | gene expression for IMPDH types I and II [2] | downregulation in the generation of proinflammatory cytokines [3] | % inhibition of proliferation ([1]; with deoxyguanosine (reversal), p<0.05) [%] | % inhibition of proliferation ([1]; without deoxyguanosine) [%]
1 | C=CC[C@@H]1/C=C(\C)C[C@H](C)C[C@H](OC)[C@H]2O[C@@](O)(C(=O)C(=O)N3CCCC[C@H]3C(=O)O[C@H](/C(C)=C/[C@@H]3CC[C@@H](O)[C@H](OC)C3)[C@H](C)[C@@H](O)CC1=O)[C@H](C)C[C@@H]2OC [tacrolimus] | little or no synergistic effect | – | – | – | – | –
2 | COc1ccc(C2CNC(=O)C2)cc1OC1CCCC1 (stereo not shown) [Rol, 4-[3-(cyclopentyloxy)-4-methoxy-phenyl]-2-pyrrolidinone] | – | ~10^−7 M | remained unaffected | no significant downregulation | – | –
3 | COc1c(C)c2c(c(O)c1C/C=C(\C)CCC(=O)O)C(=O)OC2 [MPA, mycophenolic acid] | marked synergistic effect | – | remained unaffected | no significant downregulation | 35±12 | 81±16
4 | CCCC(=O)Nc1ncnc2c1ncn2[C@@H]1O[C@@H]2COP(=O)(O)O[C@H]2[C@H]1OC(=O)CCC [dibuteryl-cAMP] | – | ~2e-06 M | – | – | – | –
